Experimental data: patent US9322066B2, “Predictors for cancer treatment” (priority 2011, dated 2016)

Test system: relapsed or refractory, rituximab-naive or -sensitive follicular B-cell NHL
Test: Treatment free interval, Vc-R vs rituximab study, by biomarker
Assay type: in vivo, human
Parameters: Treatment Free Interval, Median: unit not given here
Source text: Non-Hodgkin lymphoma (NHL) encompasses several unique malignant lymphoid disease entities that vary in clinical behavior, morphologic appearance, immunologic, and molecular phenotype. […] A randomized, open-label, active-controlled, multicenter, multinational, prospective study to compare the efficacy and safety of the combination of bortezomib and rituximab (Vc-R) to single-agent rituximab in subjects who have relapsed or refractory, rituximab-naive or -sensitive follicular B-cell NHL was performed.
Subjects were centrally randomized to Treatment Groups A (Vc-R) or B (rituximab) in a 1:1 ratio taking into account the following stratification factors: • Follicular Lymphoma International Prognostic Index (FLIPI) score (low [0 or 1 factor], intermediate [2 factors], high [≧3 factors]); • Prior rituximab therapy (yes, no); • Time since last dose of anti-lymphoma therapy (≦1 year, >1 year); • Region (United States/Canada, European Union, Rest of World).
The following clinical endpoints were included in the analysis within each treatment group and an overall comparison was made with the biomarker-related endpoints: Progression-free survival, defined as the interval between the date of randomization and the date of progressive disease (PD) or death, whichever is first reported in the ITT population; overall survival; overall response rate (complete response [CR]+CR unconfirmed [CRu]+partial response [PR]); overall CR rate (CR+CRu); duration of response; time to next anti-lymphoma therapy; and treatment free interval.

[1] = P65 % NUCLEAR STAINING: 0, 1 Prior Line of Therapy, IRC Review
[2] = P65 % NUCLEAR STAINING: ≦5%, 2 Prior Lines of Therapy, IRC Review
[3] = P65 % NUCLEAR STAINING: ≦5%, 5 Prior Lines of Therapy, IRC Review
[4] = P65 % NUCLEAR STAINING: ≦5%, Prior Rituximab Therapy, IRC Review
[5] = P65 % NUCLEAR STAINING: ≦5%, ≦65 years old, IRC Review
[6] = P65 % POSITIVE CYTOPLASMIC SIGNAL: >90%, 1 Prior Line of Therapy, IRC Review
[7] = P65 % POSITIVE CYTOPLASMIC SIGNAL: >90%, No Subgroup, IRC Review
[8] = P65 % POSITIVE CYTOPLASMIC SIGNAL: >90%, White, IRC Review
[9] = P65 % POSITIVE CYTOPLASMIC SIGNAL: >90%, ≦65 years old, IRC Review
[10] = P65 INTENSITY CYTOPLASMIC SIGNAL: ≦1+, Ann Arbor Stage III, IRC Review
[11] = P65 INTENSITY CYTOPLASMIC SIGNAL: ≧2+, 1 Prior Line of Therapy, IRC Review
[12] = P65 INTENSITY CYTOPLASMIC SIGNAL: ≧2+, ≦65 years old, IRC Review
[13] = PSMB1/A171S: G/G, >1 year since last anti-lymphoma treatment, IRC Review
[14] = PSMB1/A171S: G/G, No Subgroup, IRC Review
[15] = PSMB1/A171S: G/G, ≦65 years old, IRC review
[16] = PSMB1/I208N: T/T, >1 year since last anti-lymphoma treatment, IRC Review
[17] = PSMB1/I208N: T/T, No Subgroup, IRC Review
[18] = PSMB1/I208N: T/T, ≦65 years old, IRC review
[19] = PSMB1/P11A: C/G, European Union, IRC Review
[20] = PSMB1/P11A: C/G, No Subgroup, IRC Review
[21] = PSMB1/P11A: C/G, ≦65 years old, IRC review
[22] = PSMB1/P11A: G/G, ≦65 years old, IRC Review
[23] = PSMB1/P193L: C/C, >1 year since last anti-lymphoma treatment, IRC Review
[24] = PSMB1/P193L: C/C, ≦65 years old, IRC review
[25] = PSMB2/E49X: G/G, >1 year since last anti-lymphoma treatment, IRC Review
[26] = PSMB2/E49X: G/G, ≦65 years old, IRC review
[27] = PSMB2/G187V: G/G, >1 year since last anti-lymphoma treatment, IRC Review
[28] = PSMB2/G187V: G/G, ≦65 years old, IRC review
[29] = PSMB2/L159F: C/C, >1 year since last anti-lymphoma treatment, IRC Review
[30] = PSMB2/L159F: C/C, ≦65 years old, IRC review
[31] = PSMB5/L206M: C/C, >1 year since last anti-lymphoma treatment, IRC Review
[32] = PSMB5/L206M: C/C, ≦65 years old, IRC review
[33] = PSMB5/R24C: C/C, >1 year since last anti-lymphoma treatment, IRC Review
[34] = PSMB5/R24C: C/C, ≦65 years old, IRC review
[35] = PSMB6/A234D: C/C, >1 year since last anti-lymphoma treatment, IRC Review
[36] = PSMB6/A234D: C/C, ≦65 years old, IRC review
[37] = PSMB6/P107A: C/C, >1 year since last anti-lymphoma treatment, IRC Review
[38] = PSMB6/P107A: C/C, ≦65 years old, IRC review
[39] = PSMB8/G8R: G/G, >1 year since last anti-lymphoma treatment, IRC Review
[40] = PSMB8/G8R: G/G, ≦65 years old, IRC review
[41] = PSMB8/R141C: C/C, >1 year since last anti-lymphoma treatment, IRC Review
[42] = PSMB8/R141C: C/C, ≦65 years old, IRC review
[43] = PSMB8/V182M: G/G, >1 year since last anti-lymphoma treatment, IRC review
[44] = PSMB8/V182M: G/G, ≦65 years old, IRC review
[45] = PSMB9/G9E: G/G, >1 year since last anti-lymphoma treatment, IRC review
[46] = PSMB9/G9E: G/G, ≦65 years old, IRC review
[47] = PSMB9/V32I: C/C, >1 year since last anti-lymphoma treatment, IRC review
[48] = PSMB9/V32I: C/C, High Tumor Burden, IRC Review
[49] = PSMB9/V32I: C/C, ≦65 years old, IRC review

rituximab
Treatment Free Interval, Median (P27 SIGNAL INTENSITY: ≧2+, Prior Rituximab Therapy, IRC Review): 272
Treatment Free Interval, Evt/N [1]: 54/79
Treatment Free Interval, Median [1]: 406
Treatment Free Interval, Evt/N [2]: 7/9
Treatment Free Interval, Median [2]: 85
Treatment Free Interval, Evt/N [3]: 3/3
Treatment Free Interval, Median [3]: 95
Treatment Free Interval, Evt/N [4]: 16/21
Treatment Free Interval, Median [4]: 93
Treatment Free Interval, Evt/N [5]: 19/29
Treatment Free Interval, Median [5]: 234
Treatment Free Interval, Evt/N [6]: 59/89
Treatment Free Interval, Median [6]: 409
Treatment Free Interval, Evt/N [7]: 129/204
Treatment Free Interval, Median [7]: 363
Treatment Free Interval, Evt/N [8]: 113/179
Treatment Free Interval, Median [8]: 363
Treatment Free Interval, Evt/N [9]: 103/154
Treatment Free Interval, Median [9]: 343
Treatment Free Interval, Evt/N [10]: 10/11
Treatment Free Interval, Median [10]: 119
Treatment Free Interval, Evt/N [11]: 54/85
Treatment Free Interval, Median [11]: 427
Treatment Free Interval, Evt/N [12]: 101/152
Treatment Free Interval, Median [12]: 343
Treatment Free Interval, Evt/N [13]: 98/165
Treatment Free Interval, Median [13]: 547
Treatment Free Interval, Evt/N [14]: 173/276
Treatment Free Interval, Median [14]: 406
Treatment Free Interval, Evt/N [15]: 130/198
Treatment Free Interval, Median [15]: 344
Treatment Free Interval, Evt/N [16]: 98/165
Treatment Free Interval, Median [16]: 547
Treatment Free Interval, Evt/N [17]: 173/276
Treatment Free Interval, Median [17]: 406
Treatment Free Interval, Evt/N [18]: 130/198
Treatment Free Interval, Median [18]: 344
Treatment Free Interval, Evt/N [19]: 34/49
Treatment Free Interval, Median [19]: 309
Treatment Free Interval, Median (PSMB1/P11A: C/G, Female, IRC Review): 406
Treatment Free Interval, Evt/N [20]: 78/127
Treatment Free Interval, Median [20]: 409
Treatment Free Interval, Evt/N [21]: 63/96
Treatment Free Interval, Median [21]: 406
Treatment Free Interval, Evt/N [22]: 21/25
Treatment Free Interval, Median [22]: 269
Treatment Free Interval, Evt/N [23]: 98/165
Treatment Free Interval, Median [23]: 547
Treatment Free Interval, Median (PSMB1/P193L: C/C, No Subgroup, IRC Review): 406
Treatment Free Interval, Evt/N [24]: 130/198
Treatment Free Interval, Median [24]: 344
Treatment Free Interval, Evt/N [25]: 98/165
Treatment Free Interval, Median [25]: 547
Treatment Free Interval, Evt/N [26]: 130/198
Treatment Free Interval, Median [26]: 344
Treatment Free Interval, Evt/N [27]: 98/165
Treatment Free Interval, Median [27]: 547
Treatment Free Interval, Evt/N [28]: 130/198
Treatment Free Interval, Median [28]: 344
Treatment Free Interval, Evt/N [29]: 98/165
Treatment Free Interval, Median [29]: 547
Treatment Free Interval, Evt/N [30]: 130/198
Treatment Free Interval, Median [30]: 344
Treatment Free Interval, Evt/N [31]: 98/165
Treatment Free Interval, Median [31]: 547
Treatment Free Interval, Evt/N [32]: 130/198
Treatment Free Interval, Median [32]: 344
Treatment Free Interval, Evt/N [33]: 81/137
Treatment Free Interval, Median [33]: 507
Treatment Free Interval, Evt/N [34]: 113/170
Treatment Free Interval, Median [34]: 344
Treatment Free Interval, Evt/N [35]: 98/165
Treatment Free Interval, Median [35]: 547
Treatment Free Interval, Evt/N [36]: 130/198
Treatment Free Interval, Median [36]: 344
Treatment Free Interval, Evt/N [37]: 95/159
Treatment Free Interval, Median [37]: 561
Treatment Free Interval, Evt/N [38]: 125/189
Treatment Free Interval, Median [38]: 363
Treatment Free Interval, Evt/N [39]: 91/155
Treatment Free Interval, Median [39]: 562
Treatment Free Interval, Evt/N [40]: 123/189
Treatment Free Interval, Median [40]: 344
Treatment Free Interval, Evt/N [41]: 98/165
Treatment Free Interval, Median [41]: 547
Treatment Free Interval, Evt/N [42]: 130/198
Treatment Free Interval, Median [42]: 344
Treatment Free Interval, Evt/N [43]: 98/165
Treatment Free Interval, Median [43]: 547
Treatment Free Interval, Evt/N [44]: 130/198
Treatment Free Interval, Median [44]: 344
Treatment Free Interval, Evt/N [45]: 97/163
Treatment Free Interval, Median [45]: 547
Treatment Free Interval, Evt/N [46]: 129/196
Treatment Free Interval, Median [46]: 344
Treatment Free Interval, Evt/N [47]: 96/160
Treatment Free Interval, Median [47]: 507
Treatment Free Interval, Evt/N [48]: 106/142
Treatment Free Interval, Median [48]: 234
Treatment Free Interval, Evt/N [49]: 127/192
Treatment Free Interval, Median [49]: 344
